Test results as given in PubChem BioAssay (NCI).
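Dose response: 5 concentrations. Exposure: 48 h. Format: 96-well plates. Endpoint: linear interpolation; highest concentration if not reached. GI50 is the concentration that inhibits growth by half. TGI marks complete inhibition of growth.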

What was measured:
Experiment in all cases: NCI anticancer screen, dose series, 48 h
ACHN renal = tested on: ACHN renal
DU-145 prostate = tested on: DU-145 prostate
SNB-19 CNS = tested on: SNB-19 CNS
HCT-116 colon = tested on: HCT-116 colon
T-47D breast = tested on: T-47D breast
COLO 205 colon = tested on: COLO 205 colon
OVCAR-4 ovarian = tested on: OVCAR-4 ovarian
HCT-15 colon = tested on: HCT-15 colon
NCI-H226 lung = tested on: NCI-H226 lung
HCC-2998 colon = tested on: HCC-2998 colon

SMILES | GI50 (ACHN renal) | TGI (ACHN renal) | GI50 (DU-145 prostate) | TGI (DU-145 prostate) | GI50 (SNB-19 CNS) | TGI (SNB-19 CNS) | GI50 (HCT-116 colon) | TGI (HCT-116 colon) | GI50 (T-47D breast) | TGI (T-47D breast) | GI50 (COLO 205 colon) | TGI (COLO 205 colon) | GI50 (OVCAR-4 ovarian) | TGI (OVCAR-4 ovarian) | GI50 (HCT-15 colon) | TGI (HCT-15 colon) | GI50 (NCI-H226 lung) | TGI (NCI-H226 lung) | GI50 (HCC-2998 colon) | TGI (HCC-2998 colon)
COc1ccc(-c2ccc(/C=C/C(=O)NO)cc2)cc1 | 1.07 µM | 4.48 µM | 0.394 µM | 4.45 µM | 2.42 µM | 11.4 µM | 0.451 µM | 11.4 µM | 1.47 µM | 5.58 µM | 2.34 µM | 10.1 µM | 0.362 µM | 4.44 µM | 0.468 µM | 58.7 µM | 1.09 µM | 4.39 µM | 0.662 µM | 7.92 µM
O=C1NC(=O)/C(=C/C=C/c2ccccc2)S1 | 0.655 µM | > 37 µM | 3.76 µM | 36.6 µM | 1.42 µM | 20.3 µM | 2.36 µM | 18.6 µM | 12.8 µM | > 100 µM | 14.4 µM | > 48.3 µM | 80.8 µM | > 100 µM | 9.3 µM | 51.7 µM | 14 µM | > 80.8 µM | 1.95 µM | 11.1 µM
CC1(C)N=C(N)N=C(N)N1c1cccc(C#N)c1 | 4.09 µM | > 100 µM | 6.53 µM | > 100 µM | 49.4 µM | > 100 µM | 0.364 µM | > 100 µM | > 100 µM | > 100 µM | 31 µM | > 100 µM | > 100 µM | > 100 µM | 5.65 µM | > 100 µM | 7.07 µM | > 100 µM | 7.11 µM | > 100 µM
Nc1ncnc2c1c(C(F)(F)F)cn2[C@@H]1O[C@H](CO)[C@@H](O)[C@H]1O | 0.183 µM | > 100 µM | 0.0945 µM | > 100 µM | 0.793 µM | > 100 µM | 0.213 µM | > 100 µM | 0.104 µM | 70.8 µM | 0.0731 µM | 1.4 µM | 1.03 µM | > 100 µM | 0.197 µM | > 100 µM | 1.12 µM | 79.7 µM | 0.633 µM | 12.8 µM
